Measured values reported in patent US12139520B2 (priority 2020, dated 2024).
Numbered stars: 1 amine (or outer) side, 2 acyl side, 3 side chain; on linkers, the order of the positions; unused ones are H or OH. Bridge positions count the residues as written; N and C are the ends. Square brackets hold non-standard residues; d marks the D form. Peptide text beside a SMILES is read from it. * marks the point of attachment. C20 diacid = O=C(O)CCCCCCCCCCCCCCCCCCC(=O)*; γGlu = O=C(O)[C@H](CCC(=O)[*:2])N[*:1]; Hyp = O=C(O)[C@@H]1C[C@@H](O)CN1; NMeI = CC[C@H](C)[C@H](NC)C(=O)O; Aad = N[C@@H](CCCC(=O)O)C(=O)O; Sar = CNCC(=O)O

How the values were obtained:
hAMY3 receptor = target: T1, hAMY3 receptor (Homo sapiens, UniProt O60896+P30988); test: cAMP assay for in vitro receptor activation, hAMY3-R; format: cell-based; conditions: cAMP assay, hAMY3 receptor; read-out: hAMY3R EC50
T1 sequence (P30988 25-474): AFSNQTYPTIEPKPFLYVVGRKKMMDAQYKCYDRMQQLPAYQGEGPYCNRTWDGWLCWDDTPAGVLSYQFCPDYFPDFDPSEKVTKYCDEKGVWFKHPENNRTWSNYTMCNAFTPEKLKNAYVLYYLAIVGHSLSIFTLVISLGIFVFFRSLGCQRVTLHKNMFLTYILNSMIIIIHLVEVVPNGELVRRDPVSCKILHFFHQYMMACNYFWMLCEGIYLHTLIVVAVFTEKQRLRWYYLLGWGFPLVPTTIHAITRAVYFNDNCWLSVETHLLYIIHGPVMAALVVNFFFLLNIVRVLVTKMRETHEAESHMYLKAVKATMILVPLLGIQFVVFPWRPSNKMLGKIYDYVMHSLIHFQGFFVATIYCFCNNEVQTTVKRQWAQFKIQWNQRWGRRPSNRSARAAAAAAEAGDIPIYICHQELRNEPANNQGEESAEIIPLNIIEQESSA
T1 sequence (O60896 24-148 partner): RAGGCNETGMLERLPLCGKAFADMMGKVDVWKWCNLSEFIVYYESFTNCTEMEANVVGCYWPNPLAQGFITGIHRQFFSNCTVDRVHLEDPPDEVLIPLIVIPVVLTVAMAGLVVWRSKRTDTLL
Summary of the method: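 Accumulated cAMP was detected by time-resolved FRET one hour after reagent addition. Beforehand, hAMY3-R-overexpressing monoclonal cells (2000/well, DPBS, 0.05% casein, 0.5 mM IBMX) received graded doses of compound for 30 min at room temperature; human amylin served as positive control.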

hAM1 receptor = hAM1 receptor (Homo sapiens, UniProt O60895+Q16602); test: cAMP assay for in vitro receptor activation, hAM1-R; format: cell-based; conditions: cAMP assay, hAM1 receptor; read-out: hAM1R EC50
Summary of the method: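 A subcloned monoclonal line stably expressing hAM1 receptor is thawed and plated at 8000 cells/well. The assay buffer is DPBS with 0.05% casein and 0.5 mM IBMX, and receptor activation is followed by cAMP levels.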

Chain of hAM1 receptor (Q16602 23-461): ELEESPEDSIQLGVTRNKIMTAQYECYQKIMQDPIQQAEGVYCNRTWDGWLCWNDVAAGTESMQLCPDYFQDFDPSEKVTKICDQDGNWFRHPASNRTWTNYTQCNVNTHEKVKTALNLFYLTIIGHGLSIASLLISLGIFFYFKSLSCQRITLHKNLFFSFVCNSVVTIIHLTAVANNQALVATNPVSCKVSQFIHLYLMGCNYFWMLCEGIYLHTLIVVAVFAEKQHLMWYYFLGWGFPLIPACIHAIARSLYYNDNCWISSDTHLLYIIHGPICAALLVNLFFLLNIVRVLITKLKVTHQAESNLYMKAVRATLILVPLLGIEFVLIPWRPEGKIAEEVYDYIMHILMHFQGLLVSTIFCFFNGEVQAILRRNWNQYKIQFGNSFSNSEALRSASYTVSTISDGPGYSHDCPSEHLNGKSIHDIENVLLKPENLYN
Chain of hAM1 receptor (O60895 43-175 partner): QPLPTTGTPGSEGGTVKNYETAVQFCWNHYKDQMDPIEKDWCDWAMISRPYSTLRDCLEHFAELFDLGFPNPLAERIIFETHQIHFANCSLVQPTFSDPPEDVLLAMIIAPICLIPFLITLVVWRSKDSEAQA

EC50 (hAMY3 receptor) [nM] | EC50 (hAM1 receptor) [nM] | Structure (SMILES)
0.012 | > 5000 | CC[C@H](C)[C@H](NC(=O)[C@H](CCC(N)=O)NC(=O)[C@H](Cc1c[nH]cn1)NC(=O)[C@H](C)NC(=O)[C@H](CC(C)C)NC(=O)[C@H](CCCNC(=N)N)NC(=O)[C@H](CCC(N)=O)NC(=O)[C@@H](NC(=O)[C@@H](NC(=O)[C@@H]1CSSC[C@H](NC(=O)[C@H](CCCCN)NC(=O)CC[C@H](NC(=O)CCCCCCCCCCCCCCCCCCC(=O)O)C(=O)O)C(=O)N[C@@H](CC(N)=O)C(=O)N[C@@H]([C@@H](C)O)C(=O)N[C@@H](CO)C(=O)N[C@@H]([C@@H](C)O)C(=O)N1)[C@@H](C)O)C(C)C)C(=O)N[C@@H](C)C(=O)N[C@@H](CCC(N)=O)C(=O)N[C@@H](Cc1ccccc1)C(=O)N[C@H](C(=O)N[C@@H](CC(=O)O)C(=O)N[C@@H](CCCCN)C(=O)N[C@@H](CC(=O)O)C(=O)N[C@@H](CCCCN)C(=O)N[C@@H](CC(=O)O)C(=O)N[C@@H](CC(N)=O)C(=O)N[C@H](C(=O)N[C@@H](C)C(=O)N1CCC[C@H]1C(=O)N1CCC[C@H]1C(=O)N[C@H](C(=O)N[C@@H](CC(N)=O)C(=O)N[C@H](C(=O)NCC(=O)N[C@@H](CO)C(=O)N[C@@H](CC(N)=O)C(=O)NCC(=O)N1C[C@H](O)C[C@H]1C(N)=O)C(C)C)[C@@H](C)O)C(C)C)[C@@H](C)O [compound 62] ({C20 diacid-γGlu}-KCNTSTCTVQRLAHQIAQFTDKDKDNVAPPTNVGSNG[Hyp]-NH2; disulfide 2-7)
0.014 | > 5000 | CC[C@H](C)[C@@H](C(=O)N[C@@H](CC(C)C)C(=O)N[C@@H](CO)C(=O)N[C@@H](CO)C(=O)N[C@H](C(=O)N[C@@H](CCC(=O)O)C(=O)N[C@H](C(=O)NCC(=O)N[C@@H](CO)C(=O)N[C@@H](CC(N)=O)C(=O)N[C@H](C(=O)N1C[C@H](O)C[C@H]1C(N)=O)[C@@H](C)O)C(C)C)[C@@H](C)O)N(C)C(=O)[C@H](C)NC(=O)CN(C)C(=O)[C@H](Cc1ccccc1)NC(=O)[C@H](CO)NC(=O)[C@H](CO)NC(=O)[C@H](CCCNC(=N)N)NC(=O)[C@H](CCC(N)=O)NC(=O)[C@H](CC(C)C)NC(=O)[C@H](Cc1ccccc1)NC(=O)[C@H](CCCC(=O)O)NC(=O)[C@H](C)NC(=O)[C@H](CC(C)C)NC(=O)[C@H](CCCNC(=N)N)NC(=O)[C@H](CCC(=O)O)NC(=O)[C@@H](NC(=O)[C@H](C)NC(=O)[C@@H]1CSSC[C@H](NC(=O)[C@H](CCCNC(=N)N)NC(=O)CC[C@H](NC(=O)CCCCCCCCCCCCCCCCCCC(=O)O)C(=O)O)C(=O)NCC(=O)N[C@@H]([C@@H](C)O)C(=O)N[C@@H](C)C(=O)N[C@@H]([C@@H](C)O)C(=O)N1)[C@@H](C)O [compound 76] ({C20 diacid-γGlu}-RCGTATCATERLA[Aad]FLQRSSF[Sar]A[NMeI]LSSTEVGSNT[Hyp]-NH2; disulfide 2-7)
0.008 | > 5000 | CC[C@H](C)[C@H](NC(=O)[C@H](CCC(N)=O)NC(=O)[C@H](CC(N)=O)NC(=O)[C@H](C)NC(=O)[C@H](CC(C)C)NC(=O)[C@H](CCCNC(=N)N)NC(=O)[C@H](CCC(N)=O)NC(=O)[C@@H](NC(=O)[C@@H](NC(=O)[C@@H]1CSSC[C@H](NC(=O)[C@H](CCCCN)NC(=O)CC[C@H](NC(=O)CCCCCCCCCCCCCCCCCCC(=O)O)C(=O)O)C(=O)N[C@@H](CC(N)=O)C(=O)N[C@@H]([C@@H](C)O)C(=O)N[C@@H](C)C(=O)N[C@@H]([C@@H](C)O)C(=O)N1)[C@@H](C)O)C(C)C)C(=O)N[C@@H](Cc1ccc(O)cc1)C(=O)N[C@@H](CCC(N)=O)C(=O)N[C@@H](Cc1ccccc1)C(=O)N[C@H](C(=O)N[C@@H](CC(=O)O)C(=O)N[C@@H](CCCCN)C(=O)N[C@@H](CC(=O)O)C(=O)N[C@@H](CCCCN)C(=O)N[C@@H](CC(=O)O)C(=O)N[C@@H](CC(N)=O)C(=O)N[C@H](C(=O)N[C@@H](C)C(=O)N1CCC[C@H]1C(=O)N1CCC[C@H]1C(=O)N[C@H](C(=O)N[C@@H](CC(N)=O)C(=O)N[C@H](C(=O)NCC(=O)N[C@@H](CO)C(=O)N[C@@H](CC(N)=O)C(=O)NCC(=O)N1C[C@H](O)C[C@H]1C(N)=O)C(C)C)[C@@H](C)O)C(C)C)[C@@H](C)O [compound 21] ({C20 diacid-γGlu}-KCNTATCTVQRLANQIYQFTDKDKDNVAPPTNVGSNG[Hyp]-NH2; disulfide 2-7)
